Key:
[1] = test system: H1975; assay: CCK-8 cytotoxicity assay, H1975; type: cell-based; conditions: Homo sapiens, NCI-H1975, 72 h
Experimental: (§1) Cell viability was evaluated using the Cell Counting Kit‐8 (Beyotime, Shanghai, China) assay. Cells were seeded in 96‐well plates at a density of 2×10^3 cells to allow for attachment. After treatment with ZQJ29 (0.001, 0.01, 0.1, 10, and 25 µM) for 24, 48, and 72 h, 10 µL of CCK‐8 solution was added to each well and incubated for 1 h. The optical density values were then measured at 450 nm using a multifunctional enzyme‐linked immunosorbent assay reader (Tecan, Spark, Switzerland).

[2] = test system: MCF; assay: CCK-8 cytotoxicity assay, MCF; type: cell-based; conditions: 72 h
Experimental: as §1

[3] = test system: PANC-1 cells; assay: Cell cycle analysis (PI, flow cytometry), PANC-1; type: cell-based; conditions: PANC-1, 24 h
Experimental: (§2) PANC‐1 and KP4 cells were placed in 6 cm dishes and exposed to designated concentrations of ZQJ29 (1 µM) for 24 h before trypsinization. After centrifugation, the cells were secured and preserved in ice‐cold 70% ethanol and stored at 4 °C for 24 h. They were then thoroughly washed with PBS multiple times. Next, the fixed cells were incubated in PBS supplemented with RNase and PI solution for 30 min at 37 °C, protected from light exposure. Cell cycle progression was assessed using a flow cytometer. This experimental procedure was systematically conducted in three separate trials, with each trial done in triplicate. Cell cycle kits were obtained from Beyotime (Shanghai, China).

[4] = test system: KP4 cells; assay: Cell cycle analysis (PI, flow cytometry), KP4; type: cell-based; conditions: KP4, 24 h
Experimental: as §2

[5] = test system: PANC-1 and KP4 cells; assay: Wound healing (cell migration) assay; type: cell-based; conditions: 0, 1, 2.5, 5 µM; 12 and 24 h
Experimental: PANC‐1 and KP4 cells were cultured in 6‐well plates until complete confluence was reached. A “scratch” or “wound” was made with a sterile 10 µL pipette tip. Following this, the cells were treated with varying concentrations of ZQJ29 (0, 1, 2.5, and 5 µM). After 12 and 24 h, migration activity were observed and captured using an inverted EVOS microscope (Thermo Fisher Scientific, USA). The number of migrated cells were then quantified.

[6] = test system: PANC-1 and KP4 cells; assay: Mitochondrial membrane potential assay (JC-1); type: cell-based; conditions: 24 h
Experimental: Mitochondrial membrane potential assay kits with JC‐1 (Beyotime, Shanghai, China) were used to measure the alteration of mitochondrial membrane potential (ΔΨm). After being treated with different concentrations of ZQJ29 (0, 1, 2.5, and 5 µM) for 24 h, cells were treated with the positive control reagent CCCP (10 µM) for 30 min at 37 °C. The cells were rinsed once with PBS, and the JC‐1 staining working solution was added for 30 min at 37 °C in the dark. Afterward, the cells were washed twice with 1 × JC‐1 staining buffer. Fluorescent images of the JC‐1‐stained cells were captured with a fluorescence microscope Cytation5 (BioTek, America).

[7] = test system: PARP1; assay: PARP1 expression (western blot, immunofluorescence); type: cell-based
Experimental: For western blotting analysis, ZQJ29‐treated cells were lysed with RIPA Lysis Buffer (Yeasen, Shanghai, China) containing protease and phosphatase inhibitors (Yeasen, Shanghai, China) on ice. The cell lysates were quantified using the BCA Protein Assay Kit (Beyotime, Shanghai, China). Samples were subjected to SDS‐PAGE and transferred to PVDF membranes (Beyotime, Shanghai, China). The membranes were blocked with 5% nonfat milk in TBST (Buffered Saline with 0.1% Tween 20) for 1 h, followed by overnight incubation at 4 °C with primary antibodies. After washing the membranes three times with TBST, they were incubated with the appropriate secondary antibodies for 2 h at room temperature. Following another three times with TBST, the bands on the membranes were detected using the ECL‐Plus Western Blotting Detection System (Yeasen, Shanghai, China).
PARP1 expression in the cell nucleus was detected using immunofluorescence. The cells were seeded in a 12‐well plate and treated with ZQJ29 (0, 1, 2.5, and 5 µM) after complete adhesion. After a specific duration of treatment, fixation, blocking, and antibody incubation were performed, and images were captured using a Cytation 5‐cell imaging microplate detection system.

[8] = target: PARP1 (Homo sapiens, UniProt P09874); assay: CETSA; type: binding; parameters: Total cellular proteins from PANC‐1 and KP4 were extracted using M‐PER lysis buffer; endogenous in cells; host or cells: PANC-1 and KP4 pancreatic cancer cells
Experimental: PANC‐1 and KP4 cells were treated with M‐PER lysis buffer to lyse the cells. The resulting protein extracts were divided into two parts. One part was treated with 50 µM ZQJ29, while the other received an equal amount of DMSO. Both mixtures were incubated on ice for 1 h. The samples were then divided into 100 µL PCR tubes and exposed to a range of temperatures starting at 45 °C. After cooling and centrifugation, 5 × SDS loading buffers were added to the supernatant. The samples were then heated to 95 °C for 10 min and analyzed SDS‐PAGE followed by Western blotting.

PARP1 (Homo sapiens, UniProt P09874), sequence (P09874 whole entry): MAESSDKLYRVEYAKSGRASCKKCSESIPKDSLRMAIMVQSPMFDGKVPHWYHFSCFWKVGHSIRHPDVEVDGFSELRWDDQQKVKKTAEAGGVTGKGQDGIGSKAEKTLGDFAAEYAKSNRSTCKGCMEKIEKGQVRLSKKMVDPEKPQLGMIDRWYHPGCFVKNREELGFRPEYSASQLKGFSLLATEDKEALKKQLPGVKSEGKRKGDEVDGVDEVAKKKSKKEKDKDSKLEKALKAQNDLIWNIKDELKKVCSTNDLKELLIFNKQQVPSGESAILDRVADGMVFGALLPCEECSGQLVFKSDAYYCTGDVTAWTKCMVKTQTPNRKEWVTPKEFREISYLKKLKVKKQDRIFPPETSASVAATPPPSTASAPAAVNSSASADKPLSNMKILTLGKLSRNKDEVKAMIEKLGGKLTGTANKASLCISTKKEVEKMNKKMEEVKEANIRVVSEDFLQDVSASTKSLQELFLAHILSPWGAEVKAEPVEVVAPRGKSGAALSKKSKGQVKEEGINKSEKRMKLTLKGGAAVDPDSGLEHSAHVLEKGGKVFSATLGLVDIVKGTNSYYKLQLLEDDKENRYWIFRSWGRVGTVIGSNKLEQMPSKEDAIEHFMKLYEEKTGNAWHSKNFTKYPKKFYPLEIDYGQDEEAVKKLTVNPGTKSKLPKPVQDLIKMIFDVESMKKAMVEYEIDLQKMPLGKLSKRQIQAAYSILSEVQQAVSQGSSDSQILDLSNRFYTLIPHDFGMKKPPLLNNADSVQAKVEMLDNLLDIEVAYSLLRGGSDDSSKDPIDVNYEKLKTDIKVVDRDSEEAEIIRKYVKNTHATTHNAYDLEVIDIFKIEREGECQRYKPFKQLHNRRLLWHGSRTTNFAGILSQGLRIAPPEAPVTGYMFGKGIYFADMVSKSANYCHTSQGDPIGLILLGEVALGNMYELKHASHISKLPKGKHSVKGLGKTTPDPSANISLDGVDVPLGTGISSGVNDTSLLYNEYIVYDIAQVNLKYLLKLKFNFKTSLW

For `CC1CCC2C(C)C(OCCN(C#N)CCOC3OC4OC5(C)CCC6C(C)CCC(C3C)C46OO5)OC3OC4(C)CCC1C32OO4` (stereo not shown) [ZQJ29], the IC50 [1] was 2190 ± 113 nM, the IC50 [2] was 759 ± 311 nM and the cell cycle arrest [3] was “remarkable G2/M phase arrest”. For the same molecule, the cell cycle arrest [4] was “remarkable G2/M phase arrest”, the migration abilities [5] was “impaired” and the “mitochondrial membrane potential (MMP), JC-1” value [6] was “decrease in MMP”. For the same molecule, the “nucleoplasmic PARP1 levels (immunofluorescence)” value ([7]; PANC-1 and KP4 cells, 0, 1, 2.5, 5 µM, 24 h) was “remarkably reduced”, the “PARP1 expression (western blot)” value ([7]; PANC-1 and KP4 cells, time- and concentration-dependent) was “significantly reduced” and the “PARP1 accumulation (thermal stability)” value ([8]; PANC-1 and KP4 lysates, 50 µM ZQJ29, 45 to 70 °C) was “significantly increased”. The “PARP1 stability at 60 °C” value ([8]; cell lysates, increasing ZQJ29 concentrations) was “enhanced”.

— PMC12362764, “Novel Cyano‐Artemisinin Dimer ZQJ29 Targets PARP1 to Induce Ferroptosis in Pancreatic Cancer Treatment” (Advanced Science, 2025)
